This note sets out measurements from patent publication USRE50724E1, “4-membered ring carboxamides used as nematicides” (SYNGENTA CROP PROTECTION AG, priority 2013, dated 2026).

The structures appear in SMILES notation. A value given as a limit tells only on which side of the number the result lay.

For this test, the system named is Heterodera schachtii. In words: Heterodera schachtii (sugar beet cyst nematode), nematicide, contact activity: juvenile paralysis in 16-well assay plates. Format: in vivo. Conditions: 200 ppm, approx. 500 juveniles per well, 24 hours incubation at 25° C. in darkness, read-out: nematode immobilization compared to the untreated control. The protocol: Heterodera schachtii (Sugar Beet Cyst Nematode), Nematicide, Contact Activity
The tested application rate of each compound was 200 ppm. All solutions were brought to a concentration of 400 ppm, respectively, as they were subsequently diluted by adding the equivalent amount of water containing juvenile nematodes. After preparation of the suspensions, 1 ml of each suspension and concentration was transferred to 16-well assay plates with a total of three replicates per treatment. Approximately 500 juveniles of Heterodera schachtii were added in 1 ml of water to each well. Nematodes in water served as controls. The plates were placed in a dark box and stored at room temperature. Nematode paralysis was determined after 24 hours incubation at 25° C. in darkness.
As to `Cc1cccnc1C(=O)N[C@H]1CC[C@H]1c1ccc(Cl)cc1Cl` [Compound 61.92, N-[(1S,2S)-2-(2,4-dichlorophenyl)cyclobutyl]-3-methylpyridine-2-carboxamide], the pest or weed control at 200 ppm is more than 75%.
The value for `O=C(N[C@H]1CC[C@H]1c1ccc(Cl)cc1)c1ccsc1C(F)(F)F` [Compound 61.54, N-[(1S,2S)-2-(4-chlorophenyl)cyclobutyl]-2-(trifluoromethyl)thiophene-3-carboxamide] was more than 75%; that for `O=C(N[C@H]1CC[C@H]1c1ccc(F)cc1F)c1cncnc1C(F)(F)F` [Compound 61.122, N-[(1S,2S)-2-(2,4-difluorophenyl)cyclobutyl]-4-(trifluoromethyl)pyrimidine-5-carboxamide] was more than 75%.
Turning to `Cc1cccnc1C(=O)N[C@H]1CC[C@H]1c1ccc(F)cc1F` [Compound 61.108, N-[(1S,2S)-2-(2,4-difluorophenyl)cyclobutyl]-3-methylpyridine-2-carboxamide], the pest or weed control at 200 ppm was more than 75%.
The same measure for `O=C(N[C@H]1CC[C@H]1c1ccc(Cl)cc1Cl)c1ccc[nH]1` [Compound 61.72, N-[(1S,2S)-2-(2,4-dichlorophenyl)cyclobutyl]-1H-pyrrole-2-carboxamide]: more than 75%; for `N#Cc1ccccc1C(=O)N[C@H]1CC[C@H]1c1ccc(Cl)cc1Cl` [Compound 61.91, 2-cyano-N-[(1S,2S)-2-(2,4-dichlorophenyl)cyclobutyl]benzamide]: more than 75%; for `O=C(N[C@H]1CC[C@H]1c1ccc(Cl)cc1Cl)c1sccc1Br` [Compound 61.59, 3-bromo-N-[(1S,2S)-2-(2,4-dichlorophenyl)cyclobutyl]thiophene-2-carboxamide]: more than 75%.
As to `O=C(N[C@H]1CC[C@H]1c1ccc(Cl)cc1Cl)c1ccccc1Cl` [Compound 61.89, 2-chloro-N-[(1S,2S)-2-(2,4-dichlorophenyl)cyclobutyl]benzamide], the pest or weed control at 200 ppm is more than 75%.
In the case of `Cc1ncccc1C(=O)N[C@H]1CC[C@H]1c1ccc(Cl)cc1` [Compound 61.23, N-[(1S,2S)-2-(4-chlorophenyl)cyclobutyl]-2-methylpyridine-3-carboxamide], the pest or weed control at 200 ppm was more than 75%.
The value for `O=C(N[C@H]1CC[C@H]1c1ccc(F)cc1F)c1ncsc1Br` [Compound 61.136, 5-bromo-N-[(1S,2S)-2-(2,4-difluorophenyl)cyclobutyl]-1,3-thiazole-4-carboxamide] was more than 75%; that for `O=C(N[C@H]1CC[C@H]1c1ccc(Cl)cc1Cl)c1ncccn1` [Compound 61.90, N-[(1S,2S)-2-(2,4-dichlorophenyl)cyclobutyl]pyrimidine-2-carboxamide] was more than 75%.
The same measure for `COc1cccnc1C(=O)N[C@H]1CC[C@H]1c1ccc(Cl)cc1Cl` [Compound 61.56, N-[(1S,2S)-2-(2,4-dichlorophenyl)cyclobutyl]-3-methoxypyridine-2-carboxamide]: more than 75%; for `O=C(N[C@H]1CC[C@H]1c1ccc(Cl)cc1Cl)c1ccoc1Br` [Compound 61.173, 2-bromo-N-[(1S,2S)-2-(2,4-dichlorophenyl)cyclobutyl]furan-3-carboxamide]: more than 75%.
On to `O=C(N[C@H]1CC[C@H]1c1ccc(F)cc1F)c1sccc1Cl` [Compound 61.129, 3-chloro-N-[(1S,2S)-2-(2,4-difluorophenyl)cyclobutyl]thiophene-2-carboxamide], for which the pest or weed control at 200 ppm is more than 75%.
The value for `O=C(N[C@H]1CC[C@H]1c1ccc(Cl)cc1Cl)c1ccsc1Br` [Compound 61.87, 2-bromo-N-[(1S,2S)-2-(2,4-dichlorophenyl)cyclobutyl]thiophene-3-carboxamide] was more than 75%; that for `Cc1cccc(F)c1C(=O)N[C@H]1CC[C@H]1c1ccc(F)cc1F` [Compound 61.118, N-[(1S,2S)-2-(2,4-difluorophenyl)cyclobutyl]-2-fluoro-6-methylbenzamide] was more than 75%.
